Assay results: patent US20110105389A1 (priority 2009, published 2011)
pIC50, pKi: −log10 of the molar value. Where two headings read alike, the source gives them in different places.

What was measured:
[1] = target: T1, human ghrelin receptor (GRLN, growth hormone secretagogue receptor, hGHS-R1a) (Homo sapiens, UniProt Q92847); test: Competitive radioligand binding assay (ghrelin receptor), Method B1
T1 construct: purchased PerkinElmer BioSignal #RBHGHSM, lot#1887; host or cells: HEK-293 cells, stably transfected (membranes)
T1 sequence (Q92847 whole entry): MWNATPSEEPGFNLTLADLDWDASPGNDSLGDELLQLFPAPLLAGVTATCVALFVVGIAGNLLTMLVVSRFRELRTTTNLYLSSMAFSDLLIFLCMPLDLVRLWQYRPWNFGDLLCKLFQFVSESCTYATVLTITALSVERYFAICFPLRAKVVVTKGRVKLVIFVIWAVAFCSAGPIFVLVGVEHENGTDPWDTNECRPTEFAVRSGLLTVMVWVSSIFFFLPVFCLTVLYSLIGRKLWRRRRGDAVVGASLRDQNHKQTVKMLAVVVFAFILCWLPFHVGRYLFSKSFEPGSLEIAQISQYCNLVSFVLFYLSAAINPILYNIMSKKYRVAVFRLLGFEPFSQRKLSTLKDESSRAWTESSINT
Procedure: Multiscreen Harvest plates-GF/C (Millipore, #MAHFC1H60) • 4. […] Bottom seal (Millipore, #MATAH0P00) • 7. […] Binding Buffer: 25 mM Hepes (pH 7.4), 1 mM CaCl2, 5 mM MgCl2. 2.5 mM EDTA, 0.4% BSA
Competition experiments were performed in a 300 μl filtration assay format. • 1. 220 μL of membranes diluted in binding buffer • 2. 40 μL of compound diluted in binding buffer • 3.
Compounds were provided frozen on dry ice at a stock concentration of 10 mM diluted in 100% DMSO and stored at −80° C. until the day of testing. On the test day, compounds were allowed to thaw at rt overnight and then diluted in assay buffer according to the desired test concentrations. Under these conditions, the maximal final DMSO concentration in the assay was 0.1%.
Plates were sealed with TopSeal-A, vortexed gently and incubated at rt for 30 min. The reaction was arrested by filtering samples through Multiscreen Harvest plates (pre-soaked in 0.5% polyethyleneimine) using a Tomtec Harvester, washed 9 times with 500 μL of cold 50 mM Tris-HCl (pH 7.4, 4° C.), and then plates were air-dried in a fumehood for 30 min. A bottom seal was applied to the plates prior to the addition of 25 μL of MicroScint-0 to each well. Plates were than sealed with TopSeal-A and counted for 30 sec per well on a TopCount Microplate Scintillation and Luminescence Counter (PerkinElmer) using a count delay of 60 sec. Results were expressed as counts per minute (cpm).
Data were analyzed by GraphPad Prism (GraphPad Software, San Diego, Calif.) using a variable slope non-linear regression analysis. […] Dmax values were calculated using the following formula: […]

[2] = target: T2, ghrelin receptor (HEK-GHSR1 stable cells) (Homo sapiens, UniProt Q92847); test: Ghrelin receptor inverse agonist assay (HTRF IP-one), Method B4; assay type: cell-based; settings: inverse agonist at the ghrelin receptor, Method B4
T2 construct: expressed in transfected cells
T2 sequence (Q92847 whole entry): as above
Description: B4. Ghrelin Receptor Inverse Agonist Assay […]
In addition, the following method can be utilized to assay for inverse agonist activity. (Thomsen, W.; et al. Curr. Opin. Biotechnol. 2005, 16, 655-665; Tozawa-Takahashi F; et al., 11th SBS Annual Conference. September 2005, Geneva; Trinquet, E.; Fink, M.; Bazin, H.; et al. Anal. Biochem. 2006, 358, 126-135; Bergsdorf, C.; Kropp-Goerkis, C.; Kaehler, I.; Ketscher, L.; Boerner, U.; Parczyk, K.; Bader, B. Assay Drug Dev. Technol. 2008, 6, 39-53.)
• 1. Remove culture medium from the plate by inversion. • 2. Add 70 μl of compound/well. • 3. Incubate 30 min at 37° C. • 4. Stop the reaction by adding 15 μl of lysis buffer/well. • 5. Add 15 μl of d2/well. • 6. Add 15 μl of Anti-IP1 cryptate/well. • 7. Incubate 1 h at room temp on an orbital shaker at 100 RPM. • 8. Read the fluorescence in a plate reader (Tecan GeniosPro or similar)
The above sequence was performed using the HTRF IP-one kit (CisBio cat#62P1APEC). For the simultaneous assay of multiple test compounds, 96-well plates can be utilized in this assay (white plate with flat-bottom well, Falcon #353296). These were seeded overnight with 100 000 of HEK-GHSR1 stable cells/well. • Wells A1 and A2 of each plate are used as negative control (wells without d2). Compounds are typically tested in replicate at the following concentrations:
Compounds are stored at 10 mM in 100% DMSO.
1st dilution 1/10 in 100% DMSO (1 mM final concentration).
2nd dilution 1/10 in H2O (0.1 mM final concentration).
Other dilutions are performed in a 96-well plate in stimulation buffer.
The results for representative compounds of the invention are provided in the Examples.

[3] = target: T3, GHS-R1a receptor (HEK293 cells expressing GHS-R1a receptor) (Homo sapiens, UniProt Q92847); test: Fluorescence functional assay (ghrelin receptor), Method B2, agonist and antagonist mode; assay type: cell-based; settings: functional activity as an antagonist at the ghrelin receptor, Methods B2 and B3
T3 construct: host or cells: HEK293
T3 sequence (Q92847 whole entry): as above
Procedure: • 1. ImageTrak Epi-Fluorescence system (Perkin-Elmer) • 2. MultiDrop TiterTek • 3. CO2 incubators: 5% CO2, humidified, 37° C.
• 1. Hanks' BSS without phenol red (Life Technologies) • 2. Hepes buffer • 3. Probenecid (Sigma) • 4. […] Falcon cell culture 96-well black/clear bottom plates • 6. 0.05% trypsin-EDTA • 7. Cells: HEK293 cells expressing GHS-R1a receptor (Perkin-Elmer BioSignal) were grown in DMEM (Dulbecco's Modified Eagles Medium) with 10% FBS, 1% sodium pyruvate, 1% NEAA and 400 μg/mL geneticin • 8. […] [D-Lys^3]-GHRP-6 (reference antagonist, Phoenix #031-22) • 10. Assay buffer: HBSS-20 mM Hepes containing 2.5 mM probenecid and 0.1% BSA (bovine serum albumin); pH 7.4
Stock solutions of compounds (10 mM in 100% DMSO) were provided frozen on dry ice and stored at −80° C. prior to use. […] Assay plates were then prepared by appropriate dilution in assay buffer.
Typical Final Test Concentrations (N=10) for Test Compounds (agonist):
Typical Final Test Concentrations (N=10) for Test Compounds (antagonist):
Cells were maintained in culture as indicated above. The cells were harvested at a confluency of 70-90% the day before the experiment. Growth medium was removed and the cells rinsed briefly with PBS without Ca^+2 and Mg^+2. 0.05% Trypsin was added and the plates incubated at 37° C. for 5 min to detach the cells. DMEM medium supplemented with 10% FBS was added to inactivate the trypsin and determine the cell concentration. The inoculum was adjusted to a final concentration of 200 cells/μL and dispensed at 200 μL per well into a 96-well block plate. The plates were, incubated at 37° C. overnight.
The plates were removed from the incubator and the media removed by inversion of the plates. Calcium-3 dye, 50 μL, was loaded and then incubated for 1 h at 37° C. The plate was again inverted and then 25 μL of assay buffer added. The plates were then transferred to the ImageTrak system for analysis. For agonist testing, after reading for ten (10) sec, 25 μL of 2× test compound or control was injected into the assay plate. Fluorescence was monitored for an additional 50 sec. A reading was taken every two (2) seconds for a total of 30 readings per assay point.
For antagonist testing, after reading for ten (10) sec, 12.5 μL of 3× test compound or control was injected into the assay plate and allowed to react for three (3) min.
Concentration response curves were analyzed using GraphPad Prism (GraphPad Software, San Diego, Calif.) by non-linear regression analysis (sigmoidal dose-response). EC50 values are calculated using GraphPad.
Emax values were calculated using the following formula: […]
Concentration response curves were analyzed using GraphPad Prism (GraphPad Software, San Diego, Calif.) by non-linear regression analysis (sigmoidal dose-response). IC50 values are calculated using GraphPad.
Imax values were calculated using the following formula: […]

[4] = Ghrelin receptor binding activity, Method B1

Structure (SMILES) | pIC50 [1, 4] | Antagonist Activity [3] | also measured
CCC(C)C1NCCOc2ccccc2CC(C)CNC(=O)C(Cc2ccccc2)NC(=O)C(C(C)O)N(C)C1=O (mixture of isomers) [Compound 1338] | 7.00 to 8.00 | – | pKi [1, 4]: 7.00 to 8.00; pIC50 [2]: 6.30 to 7.00
CCC(C)[C@@H]1NCCOc2ccccc2CC[C@H](C)NC(=O)[C@@H](Cc2ccccc2)NC(=O)[C@H](C(C)O)N(C)C1=O (stereo partly drawn) [Compound 1302] | 7.00 to 8.00 | C (C = 10-100 nM) | pKi [1, 4]: 8.00 to 9.00
CC(O)[C@H]1C(=O)N[C@H](Cc2ccccc2)C(=O)NC/C=C/c2ccccc2OCCN[C@@H](C2CCCCC2)C(=O)N1C (stereo partly drawn) [Compound 1304] | – | C (C = 10-100 nM) | pKi [1, 4]: 7.00 to 8.00
CCC(C)[C@@H]1NCCOc2ccccc2/C=C/[C@H](C)NC(=O)[C@@H](Cc2ccccc2)NC(=O)[C@H](C(C)O)N(C)C1=O (stereo partly drawn) [Compound 1316] | 7.00 to 8.00 | D (D = 100-500 nM) | pKi [1, 4]: 7.00 to 8.00
CC(O)[C@H]1C(=O)N[C@H](Cc2ccccc2)C(=O)N[C@@H](C)/C=C/c2ccccc2OCCN[C@@H](C2CC2)C(=O)N1C (stereo partly drawn) [Compound 1317] | 7.00 to 8.00 | C (C = 10-100 nM) | pKi [1, 4]: 8.00 to 9.00
CCC(C)[C@@H]1NCCOc2ccccc2/C=C/CNC(=O)[C@@H](Cc2cccs2)NC(=O)[C@H](C(C)O)N(C)C1=O (stereo partly drawn) [Compound 1332] | 6.30 to 7.00 | D (D = 100-500 nM) | pKi [1, 4]: 7.00 to 8.00
CCC(C)[C@@H]1NCCOc2cc(F)ccc2CCCNC(=O)[C@@H](Cc2ccccc2)NC(=O)[C@H](C(C)O)N(C)C1=O (stereo partly drawn) [Compound 1343] | – | C (C = 10-100 nM) | pKi [1]: 8.00 to 9.00
CC1CCc2ccccc2OCCNC(C(C)C)C(=O)N(C)C(C(C)O)C(=O)NC(Cc2ccccc2O)C(=O)N1 (stereo not drawn) [Compound 1401] | – | B (B = 1-10 nM) | –
CC(C)[C@@H]1NCCOc2ccccc2CC[C@@H](C(F)(F)F)NC(=O)[C@@H](Cc2ccccc2)NC(=O)[C@H](C(C)O)N(C)C1=O (stereo partly drawn) [Compound 1402] | – | B (B = 1-10 nM) | –
CC(C)[C@@H]1NCCOc2ccccc2CC[C@@H](C)NC(=O)[C@@H]([C@H](C)c2ccccc2)NC(=O)[C@H](C(C)O)N(C)C1=O (stereo partly drawn) [Compound 1404] | – | B (B = 1-10 nM) | –
CC1CCc2ccccc2OCCNC(C(C)C)C(=O)N(C)C(C(C)O)C(=O)NC(Cc2c[nH]c3ncccc23)C(=O)N1 (stereo not drawn) [Compound 1408] | – | – | pIC50 [2]: 7.30 to 8.00
CC(C)[C@@H]1NCCOc2ccccc2CC[C@@H](C)NC(=O)[C@@H](Cc2cc(F)c(F)c(F)c2)NC(=O)[C@H](C(C)O)N(C)C1=O (stereo partly drawn) [Compound 1411] | – | B (B = 1-10 nM) | –
CC(C)[C@@H]1NCCOc2ccccc2CC[C@@H](C)NC(=O)[C@@H](Cc2csc3ccccc23)NC(=O)[C@H](C(C)O)N(C)C1=O (stereo partly drawn) [Compound 1416] | – | A (A <1 nM) | –
CC(C)[C@@H]1NCCOc2ccc(F)cc2CC[C@@H](C)NC(=O)[C@@H](Cc2ccc(F)cc2)NC(=O)[C@H](C(C)O)N(C)C1=O (stereo partly drawn) [Compound 1436] | – | B (B = 1-10 nM) | –
CC(O)[C@H]1C(=O)N[C@H](Cc2c[nH]c3ccccc23)C(=O)N[C@H](C)CCc2cc(F)ccc2OCCN[C@@H](C2CC2)C(=O)N1C (stereo partly drawn) [Compound 1442] | – | C (C = 10-100 nM) | –
COc1cccc(C[C@H]2NC(=O)[C@H](C(C)O)N(C)C(=O)[C@H](C(C)C)NCCOc3cccc(F)c3CC[C@@H](C)NC2=O)c1 (stereo partly drawn) [Compound 1446] | – | B (B = 1-10 nM) | –
CC(C)[C@@H]1NCCOc2cc(F)ccc2CC[C@@H](C)NC(=O)[C@@H](Cc2c[nH]c3ccccc23)NC(=O)[C@H](C(C)O)N(C)C1=O (stereo partly drawn) [Compound 1455] | – | B (B = 1-10 nM) | –
CC(C)[C@@H]1NCCOc2cc(F)ccc2CCCNC(=O)[C@@H](Cc2cccc(Cl)c2)NC(=O)[C@H](C(C)O)N(C)C1=O (stereo partly drawn) [Compound 1460] | – | B (B = 1-10 nM) | –
CC(C)[C@@H]1NCCOc2cc(F)ccc2CC[C@@H](C)NC(=O)[C@@H](Cc2ccc(F)cc2)NC(=O)[C@H](C(C)O)N(C)C1=O (stereo partly drawn) [Compound 1464] | – | B (B = 1-10 nM) | –
CC(O)[C@H]1C(=O)N[C@H](Cc2ccc(Cl)cc2)C(=O)NC/C=C/c2ccccc2OCCN[C@@H](C2CCCCC2)C(=O)N1C (stereo partly drawn) [Compound 1710] | 7.00 to 8.00 | – | pIC50 [2]: 6.30 to 7.00
CC(O)[C@H]1C(=O)N[C@H](Cc2ccc(F)cc2)C(=O)N[C@H](C)CCc2ccccc2OCCN[C@@H](C2CCCCC2)C(=O)N1C (stereo partly drawn) [Compound 1743] | 7.00 to 8.00 | – | pIC50 [2]: 6.30 to 7.00
CC(O)[C@H]1C(=O)N[C@H](Cc2ccc(Cl)cc2)C(=O)NC/C=C/c2ccccc2OCCN[C@@H](C(C)(C)C)C(=O)N1C (stereo partly drawn) [Compound 1768] | 7.00 to 8.00 | – | pIC50 [2]: 7.30 to 8.00
CCC(C)C1NCCOc2ccccc2C=CCNC(=O)C(Cc2ccccc2OC)NC(=O)C(C(C)O)N(C)C1=O (stereo not drawn) [Compound 1795] | 8.00 to 9.00 | – | pIC50 [2]: 6.30 to 7.00
